Reference: ChEMBL document CHEMBL1201862, “PubChem BioAssay data set” (2004)
Activity calls are given as the source filed them. Rule as the data show it, for most assays here: actives have a measured EC50 and inactives only a lower limit.

How the values were obtained:
[1] = target: T1, Apoptotic protease-activating factor 1 (Homo sapiens, UniProt O14727); format: functional
T1 sequence (O14727 whole entry): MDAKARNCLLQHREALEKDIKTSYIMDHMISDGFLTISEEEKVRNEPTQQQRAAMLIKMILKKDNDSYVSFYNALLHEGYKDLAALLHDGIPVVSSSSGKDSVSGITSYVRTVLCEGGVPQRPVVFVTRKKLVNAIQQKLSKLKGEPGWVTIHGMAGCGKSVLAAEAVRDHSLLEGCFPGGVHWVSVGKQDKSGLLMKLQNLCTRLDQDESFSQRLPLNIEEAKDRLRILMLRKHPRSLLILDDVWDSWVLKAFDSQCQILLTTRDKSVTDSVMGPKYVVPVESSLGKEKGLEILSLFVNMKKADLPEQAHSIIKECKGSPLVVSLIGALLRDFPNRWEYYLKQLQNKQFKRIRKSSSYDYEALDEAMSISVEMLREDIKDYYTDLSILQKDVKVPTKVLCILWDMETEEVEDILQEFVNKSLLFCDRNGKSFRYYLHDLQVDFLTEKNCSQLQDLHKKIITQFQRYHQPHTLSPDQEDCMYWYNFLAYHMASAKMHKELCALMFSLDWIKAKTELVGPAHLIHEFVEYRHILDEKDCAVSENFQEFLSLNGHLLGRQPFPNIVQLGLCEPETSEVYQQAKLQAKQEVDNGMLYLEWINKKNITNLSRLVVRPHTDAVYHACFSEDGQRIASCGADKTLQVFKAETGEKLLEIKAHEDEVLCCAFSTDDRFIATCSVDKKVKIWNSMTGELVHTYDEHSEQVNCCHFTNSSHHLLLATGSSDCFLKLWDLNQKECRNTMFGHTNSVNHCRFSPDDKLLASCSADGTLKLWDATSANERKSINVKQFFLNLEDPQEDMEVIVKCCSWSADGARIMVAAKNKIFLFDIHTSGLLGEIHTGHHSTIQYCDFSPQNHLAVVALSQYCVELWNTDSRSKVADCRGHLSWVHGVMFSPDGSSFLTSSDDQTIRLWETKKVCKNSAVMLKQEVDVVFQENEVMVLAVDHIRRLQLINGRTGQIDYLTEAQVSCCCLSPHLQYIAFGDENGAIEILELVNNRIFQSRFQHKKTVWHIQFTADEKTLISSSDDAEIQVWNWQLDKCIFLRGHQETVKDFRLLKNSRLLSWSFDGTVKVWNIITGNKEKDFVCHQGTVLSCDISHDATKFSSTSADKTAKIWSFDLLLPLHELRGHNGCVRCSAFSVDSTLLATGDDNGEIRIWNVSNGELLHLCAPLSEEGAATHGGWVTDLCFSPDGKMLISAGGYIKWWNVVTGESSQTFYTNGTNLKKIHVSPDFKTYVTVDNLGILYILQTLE

[2] = C. albicans growth with fluconazole, confirmation, fluorescence, retest (AID 2467); format: functional, cell-based
[3] = Counterscreen for AddAB inhibitors: absorbance-based bacterial cell-based high throughput dose response assay for inhibitors of bacterial viability. [Related pubchem assays (depositor defined):AID435030, AID449728, AID449731, AID488942, AID488955, AID488956]; format: functional
[4] = NIH-3T3 fibroblast cytotoxicity, dose response, cytotoxicity control, cell-based, fluorescence, Alamar Blue, secondary assay (AID 2327); format: functional;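 also: NIH-3T3 mouse fibroblasts cultured with fluconazole at 8 µg/mL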
[5] = target: ATP-dependent molecular chaperone HSP82 (Candida albicans (strain WO-1) (Yeast), UniProt C4YTQ8); experiment: loss of DOC-induced GRE-beta-galactosidase reporter signal, dose response, Hsp90 inhibitor project, S. cerevisiae, luminescence (AID 2400); format: functional, cell-based;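 also: beta-galactosidase luminescence from glucocorticoid response element reporter as proxy for Hsp90 function; inhibitor potency where signal loss means Hsp90 inhibition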
[6] = target: T2, Serine/threonine-protein phosphatase (Candida dubliniensis (strain CD36 / CBS 7987 / NCPF 3949 / NRRLY-17841) (Yeast), UniProt B9W6M3); experiment: calcineurin pathway inhibitors in yeast reporter, dose response, S. cerevisiae, CDRE-lacZ, luminescence, secondary (AID 2388); format: functional, cell-based;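 also: yeast reporter cells carrying a calcineurin-responsive lacZ construct stimulated with calcium chloride; luminescent beta-galactosidase reporter signal in whole cells rather than isolated phosphatase activity; potency for inhibition where a drop in reporter signal means calcineurin blockade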
T2 sequence (B9W6M3 whole entry): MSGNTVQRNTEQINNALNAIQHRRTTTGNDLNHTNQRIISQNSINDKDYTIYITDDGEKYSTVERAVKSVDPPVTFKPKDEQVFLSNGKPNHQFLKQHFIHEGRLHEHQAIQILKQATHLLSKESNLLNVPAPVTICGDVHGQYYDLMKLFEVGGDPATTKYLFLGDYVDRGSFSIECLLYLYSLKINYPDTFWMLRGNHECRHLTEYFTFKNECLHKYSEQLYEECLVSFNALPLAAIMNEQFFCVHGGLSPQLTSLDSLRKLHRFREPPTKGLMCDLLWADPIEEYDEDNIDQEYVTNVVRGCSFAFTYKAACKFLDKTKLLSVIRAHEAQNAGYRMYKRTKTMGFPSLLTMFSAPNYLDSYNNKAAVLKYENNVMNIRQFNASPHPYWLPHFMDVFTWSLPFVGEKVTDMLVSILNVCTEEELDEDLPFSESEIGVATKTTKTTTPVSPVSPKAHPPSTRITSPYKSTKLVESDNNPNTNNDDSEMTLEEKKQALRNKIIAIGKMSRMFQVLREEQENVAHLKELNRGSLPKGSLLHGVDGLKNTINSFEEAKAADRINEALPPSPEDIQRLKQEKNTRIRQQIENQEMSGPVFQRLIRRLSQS

Exodeoxyribonuclease V = target: T3, Exodeoxyribonuclease V (Escherichia coli (strain K12), UniProt P04993+P07648+P08394); experiment: E. coli RecBCD inhibitors, dose response, counter-screen for AddAB inhibitor project, absorbance, V66 E. coli, mutant T4 phage (AID 492957); format: functional, cell-based, Escherichia coli str. K-12 substr. MG1655
T3 sequence (P04993 whole entry): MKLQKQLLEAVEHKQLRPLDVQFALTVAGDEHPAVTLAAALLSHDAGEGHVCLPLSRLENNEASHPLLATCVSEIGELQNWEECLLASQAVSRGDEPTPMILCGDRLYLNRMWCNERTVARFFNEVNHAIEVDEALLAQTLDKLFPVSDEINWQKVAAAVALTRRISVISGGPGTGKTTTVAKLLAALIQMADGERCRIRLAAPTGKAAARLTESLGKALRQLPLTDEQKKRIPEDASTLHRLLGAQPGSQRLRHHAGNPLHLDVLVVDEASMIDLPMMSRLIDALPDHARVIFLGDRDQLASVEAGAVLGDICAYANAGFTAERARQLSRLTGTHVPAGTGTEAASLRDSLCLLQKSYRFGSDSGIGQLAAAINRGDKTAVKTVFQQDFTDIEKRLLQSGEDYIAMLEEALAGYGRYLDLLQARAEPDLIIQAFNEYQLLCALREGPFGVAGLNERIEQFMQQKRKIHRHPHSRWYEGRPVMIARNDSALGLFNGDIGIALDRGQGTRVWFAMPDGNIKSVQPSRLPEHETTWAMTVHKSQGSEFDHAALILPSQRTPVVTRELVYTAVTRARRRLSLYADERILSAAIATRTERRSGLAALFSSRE
T3 sequence (P07648 whole entry): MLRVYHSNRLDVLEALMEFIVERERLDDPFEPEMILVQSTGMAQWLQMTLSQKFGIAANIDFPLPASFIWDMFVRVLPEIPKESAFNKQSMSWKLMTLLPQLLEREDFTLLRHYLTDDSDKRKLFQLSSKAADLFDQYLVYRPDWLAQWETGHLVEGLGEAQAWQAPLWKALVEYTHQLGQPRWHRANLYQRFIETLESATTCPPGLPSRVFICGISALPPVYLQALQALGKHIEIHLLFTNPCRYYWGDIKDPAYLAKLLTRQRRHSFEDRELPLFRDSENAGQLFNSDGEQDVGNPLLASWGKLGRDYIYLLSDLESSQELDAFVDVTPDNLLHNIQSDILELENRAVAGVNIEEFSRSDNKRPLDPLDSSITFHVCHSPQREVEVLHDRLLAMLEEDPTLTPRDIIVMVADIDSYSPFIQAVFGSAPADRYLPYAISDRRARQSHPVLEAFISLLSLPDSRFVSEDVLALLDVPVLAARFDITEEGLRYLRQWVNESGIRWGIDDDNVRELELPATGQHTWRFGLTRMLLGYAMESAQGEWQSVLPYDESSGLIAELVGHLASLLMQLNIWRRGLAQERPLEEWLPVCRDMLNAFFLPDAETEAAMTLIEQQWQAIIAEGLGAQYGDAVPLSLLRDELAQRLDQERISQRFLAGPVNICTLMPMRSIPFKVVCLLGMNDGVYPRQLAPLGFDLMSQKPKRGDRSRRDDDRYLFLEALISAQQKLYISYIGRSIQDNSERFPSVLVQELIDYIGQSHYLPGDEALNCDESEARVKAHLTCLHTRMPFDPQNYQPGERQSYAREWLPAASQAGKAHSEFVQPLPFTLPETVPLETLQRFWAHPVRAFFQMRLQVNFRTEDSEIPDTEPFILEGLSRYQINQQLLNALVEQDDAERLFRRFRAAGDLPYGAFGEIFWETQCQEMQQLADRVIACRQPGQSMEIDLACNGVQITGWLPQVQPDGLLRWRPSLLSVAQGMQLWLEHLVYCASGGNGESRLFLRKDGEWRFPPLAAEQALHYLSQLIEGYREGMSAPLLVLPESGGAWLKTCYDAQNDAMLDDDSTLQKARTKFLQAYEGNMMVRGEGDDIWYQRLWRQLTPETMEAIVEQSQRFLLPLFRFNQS
T3 sequence (P08394 whole entry): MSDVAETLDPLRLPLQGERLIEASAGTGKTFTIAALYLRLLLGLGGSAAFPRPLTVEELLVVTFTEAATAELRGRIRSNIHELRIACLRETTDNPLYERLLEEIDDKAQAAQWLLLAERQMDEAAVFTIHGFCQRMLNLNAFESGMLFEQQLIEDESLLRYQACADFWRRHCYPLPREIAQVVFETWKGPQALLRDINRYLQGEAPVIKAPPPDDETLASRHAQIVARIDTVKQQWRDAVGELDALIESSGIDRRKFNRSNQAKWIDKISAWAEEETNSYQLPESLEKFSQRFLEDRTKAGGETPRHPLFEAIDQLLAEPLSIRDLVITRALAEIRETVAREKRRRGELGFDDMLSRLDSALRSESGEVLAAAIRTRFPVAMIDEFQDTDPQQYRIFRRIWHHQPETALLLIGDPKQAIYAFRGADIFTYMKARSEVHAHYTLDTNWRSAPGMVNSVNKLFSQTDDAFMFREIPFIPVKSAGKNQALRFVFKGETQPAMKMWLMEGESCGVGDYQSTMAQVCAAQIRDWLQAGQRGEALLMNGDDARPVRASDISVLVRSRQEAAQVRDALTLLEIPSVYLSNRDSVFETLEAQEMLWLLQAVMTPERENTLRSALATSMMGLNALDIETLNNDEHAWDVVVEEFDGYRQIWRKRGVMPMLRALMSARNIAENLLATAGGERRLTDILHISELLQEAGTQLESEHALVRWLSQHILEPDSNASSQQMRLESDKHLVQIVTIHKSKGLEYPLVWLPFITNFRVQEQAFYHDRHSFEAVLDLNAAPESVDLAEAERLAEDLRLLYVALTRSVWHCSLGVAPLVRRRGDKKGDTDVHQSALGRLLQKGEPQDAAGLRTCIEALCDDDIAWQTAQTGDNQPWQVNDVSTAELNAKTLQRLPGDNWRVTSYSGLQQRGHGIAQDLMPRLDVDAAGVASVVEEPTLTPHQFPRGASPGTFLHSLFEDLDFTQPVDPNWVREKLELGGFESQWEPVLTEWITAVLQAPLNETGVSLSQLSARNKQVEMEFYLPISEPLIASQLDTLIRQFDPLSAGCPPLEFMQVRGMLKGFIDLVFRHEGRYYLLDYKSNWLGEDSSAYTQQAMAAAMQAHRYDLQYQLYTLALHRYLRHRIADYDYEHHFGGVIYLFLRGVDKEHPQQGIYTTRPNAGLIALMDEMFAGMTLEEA

Chain of ATP-dependent molecular chaperone HSP82 (C4YTQ8 whole entry): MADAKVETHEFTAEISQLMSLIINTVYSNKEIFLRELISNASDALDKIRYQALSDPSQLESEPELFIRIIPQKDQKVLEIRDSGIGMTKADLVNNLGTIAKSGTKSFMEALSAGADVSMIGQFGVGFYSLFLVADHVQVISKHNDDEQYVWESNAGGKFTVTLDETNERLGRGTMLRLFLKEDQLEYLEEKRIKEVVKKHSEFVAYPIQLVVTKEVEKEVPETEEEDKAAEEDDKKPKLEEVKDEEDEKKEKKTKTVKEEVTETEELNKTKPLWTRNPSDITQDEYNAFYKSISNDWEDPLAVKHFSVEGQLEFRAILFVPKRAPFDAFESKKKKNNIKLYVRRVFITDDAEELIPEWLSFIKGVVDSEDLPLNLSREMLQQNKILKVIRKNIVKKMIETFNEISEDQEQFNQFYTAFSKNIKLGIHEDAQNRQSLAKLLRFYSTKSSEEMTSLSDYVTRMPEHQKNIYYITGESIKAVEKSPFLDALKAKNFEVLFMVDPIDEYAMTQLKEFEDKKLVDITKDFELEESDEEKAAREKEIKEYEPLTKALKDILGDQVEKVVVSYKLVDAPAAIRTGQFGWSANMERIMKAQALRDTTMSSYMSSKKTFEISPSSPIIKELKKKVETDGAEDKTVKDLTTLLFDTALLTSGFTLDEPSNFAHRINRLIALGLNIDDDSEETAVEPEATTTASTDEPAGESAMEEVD

IC50 [1] | Structure (SMILES) | EC50 [2] | IC50 [3] | EC50 [4] | EC50 [5] | EC50 [6] | IC50 (Exodeoxyribonuclease V)
43.7 µM (active) | COc1ccc(CC(=O)N(Cc2ccccc2)c2ccc(C)cc2)cc1S(=O)(=O)N1CCOCC1 |  |  |  |  |  | 
 | CC(=O)NC1CCCN(O)C(=O)/C=C(\C)CCOC(=O)C(NC(C)=O)CCCN(O)C(=O)/C=C(\C)CCOC(=O)C(NC(C)=O)CCCN(O)C(=O)/C=C(\C)CCOC1=O (configuration not stated) | 0.742 µM (active) | > 119 µM (inactive) | > 160 µM (inactive) | > 160 µM (inactive) | > 180 µM (inactive) | > 119 µM (inactive)
